Paper PMC7949251 (Journal of medicinal chemistry, 2020)

Experiments:
JAK2 JH2 = JAK2 JH2 (Homo sapiens, UniProt O60674, F794H/W659A/W777A); experiment: Competitive fluorescence polarization
[1] = cited from earlier work

Sequence of JAK2 JH2 (O60674 536-812 W659A/W777A/F794H): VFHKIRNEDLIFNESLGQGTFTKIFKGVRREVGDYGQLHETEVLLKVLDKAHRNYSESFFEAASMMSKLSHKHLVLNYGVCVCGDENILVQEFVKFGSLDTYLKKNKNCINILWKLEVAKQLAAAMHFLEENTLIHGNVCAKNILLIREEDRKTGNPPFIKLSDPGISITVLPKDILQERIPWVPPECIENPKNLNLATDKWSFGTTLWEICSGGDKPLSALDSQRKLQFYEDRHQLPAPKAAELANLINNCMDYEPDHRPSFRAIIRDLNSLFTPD

For Nc1nc(Nc2ccc(S(N)(=O)=O)cc2)nn1C(=O)Nc1ccccc1 [Compound 4, 5-amino-N-phenyl-3-((4-sulfamoylphenyl)amino)-1H-1,2,4-triazole-1-carboxamide], the “improvement in JAK2 JH2 binding over 2” value (JAK2 JH2; FP Kd relative to compound 2) was 3 fold.

In the case of N#Cc1ccc(Nc2nc(N)n(C(=O)Nc3ccc(OCC(=O)O)cc3)n2)cc1 [Compound 9, 2-(4-(5-amino-3-((4-cyanophenyl)amino)-1H-1,2,4-triazole-1-carboxamido)phenoxy)acetic acid], the “boost in binding strength with JAK2 JH2 compared to 4” value (JAK2 JH2; FP Kd relative to compound 4) is reported as “ca. 8 fold”.

In the case of c1cocn1 [oxazole], the “octanol/water log P” value [1] is listed as 0.12.

In the case of c1cscn1 [thiazole], the “octanol/water log P” value [1] is given as 0.44.

In the case of c1ccsc1 [thiophene], the “octanol/water log P” value [1] is listed as 1.81.

For furan, the “octanol/water log P” value [1] is listed as 1.34.
